We go through 6 compounds from ChEMBL document CHEMBL4219123, “Synthesis of new analogs of tetraiodothyroacetic acid (tetrac) as novel angiogenesis inhibitors for treatment of cancer” (Bioorg Med Chem Lett, 2018).

Activity calls are given as the source filed them. No cut-off for these calls is given here.

The test has as its system Mus musculus. As to the kind of experiment: Antiangiogenic activity in C57/B6 mouse injected with matrigel containing murine vascular growth factor assessed as reduction in hemoglobin content in matrigel plug at 10ug/10ull to 200 uL matrigel administered subcutaneously measured after 14 days by spectrophotometry-based Drabkin method. In kind it is functional, organism-based.
For `O=C(O)Cc1cc(I)c(Oc2cc(I)c(OCCCc3ccccc3)c(I)c2)c(I)c1`, the result was Active.

On to `O=C(O)Cc1cc(I)c(Oc2cc(I)c(OCCN3C(=O)c4ccccc4C3=O)c(I)c2)c(I)c1`, for which the outcome was Active. As for `O=C(O)Cc1cc(I)c(Oc2cc(I)c(OCCCN3C(=O)c4ccccc4C3=O)c(I)c2)c(I)c1`, the entry is “Active”; as for `O=C(O)Cc1cc(I)c(Oc2cc(I)c(OCc3cccnc3)c(I)c2)c(I)c1`, “Active”. For `O=C(O)Cc1cc(I)c(Oc2cc(I)c(O)c(I)c2)c(I)c1` the value was “Active”.

For the compound `C#CCOc1c(I)cc(Oc2c(I)cc(CC(=O)O)cc2I)cc1I`, the result was Active.
